Key:
Assay type in all cases: cell-based
GIPR = target: T1, GIPR (Homo sapiens, UniProt P48546); experiment: GIP activity test (cAMP, chemiluminescence)
T1 construct: expressed in transfected cells; host or cells: CHO-K1
T1 sequence (P48546 22-466): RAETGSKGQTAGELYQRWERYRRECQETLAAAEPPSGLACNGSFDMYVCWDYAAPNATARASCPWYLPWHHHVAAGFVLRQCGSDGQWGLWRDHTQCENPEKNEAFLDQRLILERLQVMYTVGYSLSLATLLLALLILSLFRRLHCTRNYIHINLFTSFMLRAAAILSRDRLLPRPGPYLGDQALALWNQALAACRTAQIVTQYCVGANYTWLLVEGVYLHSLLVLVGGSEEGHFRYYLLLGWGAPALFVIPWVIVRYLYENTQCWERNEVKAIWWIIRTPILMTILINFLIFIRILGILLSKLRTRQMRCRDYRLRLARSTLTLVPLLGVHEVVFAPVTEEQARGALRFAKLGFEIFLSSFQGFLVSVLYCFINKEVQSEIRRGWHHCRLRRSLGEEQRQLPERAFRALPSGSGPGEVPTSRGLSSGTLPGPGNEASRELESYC
Experimental: (§1) Upon stimulation by a specific agonist, GIPR activates the intracellular adenylate cyclase signaling pathway, resulting in an increase in cAMP levels and ultimately leading to insulin production and secretion. A cell line stably transfected with GIPR was stimulated with test compounds, thereby rapidly increasing intracellular cAMP levels. The relative luminescence units (RLU) of cells stimulated at various concentrations were measured by a chemiluminescence method, and the EC50 value of the agonist was calculated accordingly. This activity assay method is currently a commonly used method for evaluating GIP receptor agonist activity both domestically and internationally. A CHO-K1 cell line stably expressing GIPR was used. The stable cells were stimulated with agonists at different concentrations, and the relative luminescence units after stimulation at each concentration were measured to calculate the EC50 value of the agonist.

GLP-1R = target: T2, GLP-1R (Homo sapiens, UniProt P43220); experiment: GLP-1 activity test (cAMP, chemiluminescence)
T2 construct: expressed in transfected cells; host or cells: CHO-K1
T2 sequence (P43220 24-463, species assumed): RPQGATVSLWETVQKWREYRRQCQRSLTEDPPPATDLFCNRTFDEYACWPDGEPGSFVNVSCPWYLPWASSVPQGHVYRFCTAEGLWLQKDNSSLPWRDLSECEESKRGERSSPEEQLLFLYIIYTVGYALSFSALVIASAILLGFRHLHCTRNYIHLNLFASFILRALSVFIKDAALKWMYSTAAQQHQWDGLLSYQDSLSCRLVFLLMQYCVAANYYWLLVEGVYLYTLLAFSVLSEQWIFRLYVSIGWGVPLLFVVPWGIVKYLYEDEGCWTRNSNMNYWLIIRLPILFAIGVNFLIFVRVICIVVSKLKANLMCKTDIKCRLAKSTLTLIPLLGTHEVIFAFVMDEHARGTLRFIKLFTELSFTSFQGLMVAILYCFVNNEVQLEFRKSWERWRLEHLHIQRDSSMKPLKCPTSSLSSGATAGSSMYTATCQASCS
Experimental: as §1, with “GLP-1R” for “GIPR”, “test” for “assay”, “GLP-1” for “GIP”

GCG-R = target: T3, GCG-R (Homo sapiens, UniProt P47871); experiment: GCG activity test (cAMP, chemiluminescence)
T3 construct: expressed in transfected cells; host or cells: CHO-K1
T3 sequence (P47871 26-477, species assumed): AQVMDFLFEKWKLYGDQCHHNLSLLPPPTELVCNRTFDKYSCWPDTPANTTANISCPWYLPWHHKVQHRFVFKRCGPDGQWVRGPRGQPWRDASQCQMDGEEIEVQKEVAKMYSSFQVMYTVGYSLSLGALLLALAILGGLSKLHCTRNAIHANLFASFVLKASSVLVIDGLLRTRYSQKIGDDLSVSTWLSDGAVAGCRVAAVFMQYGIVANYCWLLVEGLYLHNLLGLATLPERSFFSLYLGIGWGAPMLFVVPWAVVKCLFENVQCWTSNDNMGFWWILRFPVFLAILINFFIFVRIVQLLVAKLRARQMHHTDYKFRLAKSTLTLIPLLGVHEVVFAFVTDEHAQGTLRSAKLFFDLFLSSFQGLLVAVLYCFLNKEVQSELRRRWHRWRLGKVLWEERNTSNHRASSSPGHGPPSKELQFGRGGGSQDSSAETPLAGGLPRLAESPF
Experimental: as §1, with “GCG-R” for “GIPR”, “GCG” for “GIP”, “internationally.” for “internationally. A CHO-K1 cell line stably expressing GIPR was used. The stable cells were stimulated with agonists at different concentrations, and the relative luminescence units after stimulation at each concentration were measured to calculate the EC50 value of the agonist.”
A CHO-K1 cell line stably expressing GCG-R was used. The stable cells were stimulated with agonists at different concentrations, and the relative luminescence units after stimulation at each concentration were measured to calculate the EC50 value of the agonist.

Compound	EC50 (GIPR) [nM]	EC50 (GLP-1R) [nM]	EC50 (GCG-R) [nM]
CC[C@H](C)[C@H](NC(=O)[C@H](Cc1ccccc1)NC(=O)[C@H](C)NC(=O)C(C)(C)NC(=O)[C@H](CCC(N)=O)NC(=O)[C@H](C)NC(=O)[C@H](CCCCNC(=O)COCCOCCNC(=O)CC[C@H](NC(=O)CCCCCCCCCCCCCCCCCCC(=O)O)C(=O)O)NC(=O)[C@H](CCCCN)NC(=O)[C@H](CC(=O)O)NC(=O)[C@H](CC(C)C)NC(=O)C(C)(CC(C)C)NC(=O)[C@@H](NC(=O)[C@H](CO)NC(=O)[C@H](Cc1ccc(O)cc1)NC(=O)[C@H](CC(=O)O)NC(=O)[C@H](CO)NC(=O)[C@@H](NC(=O)C(C)(Cc1ccccc1)NC(=O)[C@@H](NC(=O)CNC(=O)[C@H](CCC(N)=O)NC(=O)C(C)(C)NC(=O)[C@@H](N)Cc1ccc(O)cc1)[C@@H](C)O)[C@@H](C)O)[C@@H](C)CC)C(=O)N[C@@H](CCC(=O)O)C(=O)N[C@@H](Cc1ccc(O)cc1)C(=O)N[C@@H](CC(C)C)C(=O)N[C@@H](CC(C)C)C(=O)N[C@@H](CCC(=O)O)C(=O)NCCCCC(=O)N1CCC[C@H]1C(=O)N[C@@H](CO)C(=O)N[C@@H](CO)C(=O)NCC(=O)N[C@@H](C)C(=O)N1CCC[C@H]1C(=O)N1CCC[C@H]1C(=O)N1CCC[C@H]1C(=O)N[C@@H](CO)C(N)=O (stereo partly drawn) [Compound 1]	0.0244	0.045	0.271
CC[C@H](C)[C@H](NC(=O)[C@H](Cc1ccccc1)NC(=O)[C@H](C)NC(=O)C(C)(C)NC(=O)[C@H](CCC(N)=O)NC(=O)[C@H](C)NC(=O)[C@H](CCCCNC(=O)COCCOCCNC(=O)CCCC[C@H](NC(=O)CCCCCCCCCCCCCCCCCCC(=O)O)C(=O)O)NC(=O)[C@H](CCCCN)NC(=O)[C@H](CC(=O)O)NC(=O)[C@H](CC(C)C)NC(=O)C(C)(CC(C)C)NC(=O)[C@@H](NC(=O)[C@H](CO)NC(=O)[C@H](Cc1ccc(O)cc1)NC(=O)[C@H](CC(=O)O)NC(=O)[C@H](CO)NC(=O)[C@@H](NC(=O)C(C)(Cc1ccccc1)NC(=O)[C@@H](NC(=O)CNC(=O)[C@H](CCC(N)=O)NC(=O)C(C)(C)NC(=O)[C@@H](N)Cc1ccc(O)cc1)[C@@H](C)O)[C@@H](C)O)[C@@H](C)CC)C(=O)N[C@@H](CCC(=O)O)C(=O)N[C@@H](Cc1ccc(O)cc1)C(=O)N[C@@H](CC(C)C)C(=O)N[C@@H](CC(C)C)C(=O)N[C@@H](CCC(=O)O)C(=O)NCCCCC(=O)N1CCC[C@H]1C(=O)N[C@@H](CO)C(=O)N[C@@H](CO)C(=O)NCC(=O)N[C@@H](C)C(=O)N1CCC[C@H]1C(=O)N1CCC[C@H]1C(=O)N1CCC[C@H]1C(=O)N[C@@H](CO)C(N)=O (stereo partly drawn) [Compound 3]	0.0267	0.0452	0.283
CC[C@H](C)[C@H](NC(=O)[C@H](Cc1ccccc1)NC(=O)[C@H](C)NC(=O)C(C)(C)NC(=O)[C@H](CCC(N)=O)NC(=O)[C@H](C)NC(=O)[C@H](CCCCNC(=O)COCCOCCNC(=O)CCCCC[C@H](NC(=O)CCCCCCCCCCCCCCCCCCC(=O)O)C(=O)O)NC(=O)[C@H](CCCCN)NC(=O)[C@H](CC(=O)O)NC(=O)[C@H](CC(C)C)NC(=O)C(C)(CC(C)C)NC(=O)[C@@H](NC(=O)[C@H](CO)NC(=O)[C@H](Cc1ccc(O)cc1)NC(=O)[C@H](CC(=O)O)NC(=O)[C@H](CO)NC(=O)[C@@H](NC(=O)C(C)(Cc1ccccc1)NC(=O)[C@@H](NC(=O)CNC(=O)[C@H](CCC(N)=O)NC(=O)C(C)(C)NC(=O)[C@@H](N)Cc1ccc(O)cc1)[C@@H](C)O)[C@@H](C)O)[C@@H](C)CC)C(=O)N[C@@H](CCC(=O)O)C(=O)N[C@@H](Cc1ccc(O)cc1)C(=O)N[C@@H](CC(C)C)C(=O)N[C@@H](CC(C)C)C(=O)N[C@@H](CCC(=O)O)C(=O)NCCCCC(=O)N1CCC[C@H]1C(=O)N[C@@H](CO)C(=O)N[C@@H](CO)C(=O)NCC(=O)N[C@@H](C)C(=O)N1CCC[C@H]1C(=O)N1CCC[C@H]1C(=O)N1CCC[C@H]1C(=O)N[C@@H](CO)C(N)=O (stereo partly drawn) [Compound 4]	0.031	0.0554	0.286
CC[C@H](C)[C@H](NC(=O)[C@H](Cc1ccccc1)NC(=O)[C@H](C)NC(=O)C(C)(C)NC(=O)[C@H](CCC(N)=O)NC(=O)[C@H](C)NC(=O)[C@H](CCCCNC(=O)COCCOCCNC(=O)CC[C@H](NC(=O)CCCCCCCCCCCCCCCCCCC(=O)O)C(=O)O)NC(=O)[C@H](CCCCN)NC(=O)[C@H](CC(=O)O)NC(=O)[C@H](CC(C)C)NC(=O)C(C)(CC(C)C)NC(=O)[C@@H](NC(=O)[C@H](CO)NC(=O)[C@H](Cc1ccc(O)cc1)NC(=O)[C@H](CC(=O)O)NC(=O)[C@H](CO)NC(=O)[C@@H](NC(=O)C(C)(Cc1ccccc1F)NC(=O)[C@@H](NC(=O)CNC(=O)[C@H](CCC(N)=O)NC(=O)C(C)(C)NC(=O)[C@@H](N)Cc1ccc(O)cc1)[C@@H](C)O)[C@@H](C)O)[C@@H](C)CC)C(=O)N[C@@H](CCC(=O)O)C(=O)N[C@@H](Cc1ccc(O)cc1)C(=O)N[C@@H](CC(C)C)C(=O)N[C@@H](CC(C)C)C(=O)N[C@@H](CCC(=O)O)C(=O)NCCCCC(=O)N1CCC[C@H]1C(=O)N[C@@H](CO)C(=O)N[C@@H](CO)C(=O)NCC(=O)N[C@@H](C)C(=O)N1CCC[C@H]1C(=O)N1CCC[C@H]1C(=O)N1CCC[C@H]1C(=O)N[C@@H](CO)C(N)=O (stereo partly drawn) [Compound 5]	0.0236	0.0434	0.159
CC[C@H](C)[C@H](NC(=O)[C@H](Cc1ccccc1)NC(=O)[C@H](C)NC(=O)C(C)(C)NC(=O)[C@H](CCC(N)=O)NC(=O)[C@H](C)NC(=O)[C@H](CCCCNC(=O)COCCOCCNC(=O)CCCC[C@H](NC(=O)CCCCCCCCCCCCCCCCCCC(=O)O)C(=O)O)NC(=O)[C@H](CCCCN)NC(=O)[C@H](CC(=O)O)NC(=O)[C@H](CC(C)C)NC(=O)C(C)(CC(C)C)NC(=O)[C@@H](NC(=O)[C@H](CO)NC(=O)[C@H](Cc1ccc(O)cc1)NC(=O)[C@H](CC(=O)O)NC(=O)[C@H](CO)NC(=O)[C@@H](NC(=O)C(C)(Cc1ccccc1F)NC(=O)[C@@H](NC(=O)CNC(=O)[C@H](CCC(N)=O)NC(=O)C(C)(C)NC(=O)[C@@H](N)Cc1ccc(O)cc1)[C@@H](C)O)[C@@H](C)O)[C@@H](C)CC)C(=O)N[C@@H](CCC(=O)O)C(=O)N[C@@H](Cc1ccc(O)cc1)C(=O)N[C@@H](CC(C)C)C(=O)N[C@@H](CC(C)C)C(=O)N[C@@H](CCC(=O)O)C(=O)NCCCCC(=O)N1CCC[C@H]1C(=O)N[C@@H](CO)C(=O)N[C@@H](CO)C(=O)NCC(=O)N[C@@H](C)C(=O)N1CCC[C@H]1C(=O)N1CCC[C@H]1C(=O)N1CCC[C@H]1C(=O)N[C@@H](CO)C(N)=O (stereo partly drawn) [Compound 7]	0.0246	0.0455	0.163
CC[C@H](C)[C@H](NC(=O)[C@H](Cc1ccccc1)NC(=O)[C@H](C)NC(=O)C(C)(C)NC(=O)[C@H](CCC(N)=O)NC(=O)[C@H](C)NC(=O)[C@H](CCCCNC(=O)COCCOCCNC(=O)CCCCC[C@H](NC(=O)CCCCCCCCCCCCCCCCCCC(=O)O)C(=O)O)NC(=O)[C@H](CCCCN)NC(=O)[C@H](CC(=O)O)NC(=O)[C@H](CC(C)C)NC(=O)C(C)(CC(C)C)NC(=O)[C@@H](NC(=O)[C@H](CO)NC(=O)[C@H](Cc1ccc(O)cc1)NC(=O)[C@H](CC(=O)O)NC(=O)[C@H](CO)NC(=O)[C@@H](NC(=O)C(C)(Cc1ccccc1F)NC(=O)[C@@H](NC(=O)CNC(=O)[C@H](CCC(N)=O)NC(=O)C(C)(C)NC(=O)[C@@H](N)Cc1ccc(O)cc1)[C@@H](C)O)[C@@H](C)O)[C@@H](C)CC)C(=O)N[C@@H](CCC(=O)O)C(=O)N[C@@H](Cc1ccc(O)cc1)C(=O)N[C@@H](CC(C)C)C(=O)N[C@@H](CC(C)C)C(=O)N[C@@H](CCC(=O)O)C(=O)NCCCCC(=O)N1CCC[C@H]1C(=O)N[C@@H](CO)C(=O)N[C@@H](CO)C(=O)NCC(=O)N[C@@H](C)C(=O)N1CCC[C@H]1C(=O)N1CCC[C@H]1C(=O)N1CCC[C@H]1C(=O)N[C@@H](CO)C(N)=O (stereo partly drawn) [Compound 8]	0.0329	0.0524	0.179

Source: EP4806910A1, “TRI-AGONIST COMPOUND” (priority 2023, dated 2025)
